This note sets out measurements from US9790215B2 (FLATLEY DISCOVERY LAB, LLC, priority 2013, dated 2017).

For the experiment, the target named is T1, human ΔF508-CFTR (Homo sapiens, UniProt P13569, DEL508-508).
T1 construct: expressed in transfected cells
Description: CFTR-YFP High Throughput Assay (YFP halide flux in FRT cells). The format is cell-based. As to conditions: FRT cells expressing human ΔF508-CFTR and YFP; for EC50: forskolin stimulated. The protocol: Assays for Detecting and Measuring the Effect of Compounds on dF508-CFTR Channels CFRT-YFP High Throughput Assay:
The following protocol is designed to selectively screen small molecule compounds for F508del CFTR corrector activities in the HTS YFP flux assay. In this protocol, the cells are incubated with testing compounds for 24 hours, washed with PBS, stimulated with forskolin and a standard potentiator, and read on a 384-well HTS plate reader, such as the Hamamatsu FDDD-6000.
YFP fluorescence intensity is acquired at high speed before and after iodide buffer is injected to the assay cells. Iodide enters the cells via active CFTR channels in the plasma membrane, and quenches the YFP fluorescence. The rate of fluorescence quenching is proportionally related to the total CFTR activities in the cell membrane. dF508-CFTR corrector accelerates YFP quenching by increasing the number of CFTR molecules in the testing cell plasma membrane.
This method was initially developed for bench top plate readers (Galietta et al., 2001), and was adapted to the HTS format (Sui et al. Assay Drug Dev. Technol. 2010).
Fisher Rat Thyroid (FRT) cells stably expressing both human AF508-CFTR and a halide-sensitive yellow fluorescent protein (YFP—H148Q/1152L 25, 22) (Galietta et al., Am. J. Physiol Cell Physiol 281(5), C1734, 2001) were cultured on plastic surface in Coon's modified Ham's F12 medium supplemented with FBS 10%, L-glutamine 2 mM, penicillin 100 U/mL, and streptomycin 100 μg/mL. G418 (0.75-1.0 mg/mL) and zeocin (3.2 ug/mL) were used for selection of FRT cells expressing ΔF508-CFTR and YFP. For primary screening, FRT cells were plated into 384-well black wall, transparent bottom microtiter plates (Costar; Corning Inc.) at a cell density of 20,000-40,000 per well. Test compound was applied to the cells at varying concentrations ranging from […] in either a 2-fold or 3-fold dilution series. Cells were incubated in a cell culture incubator at 37° C. with 5% CO2 for 24-26 h. Assay plates were washed with DPBS media (Thermo, cat# SH30028.02) to remove unbound cells and compound. Stimulation media (25 μL) containing 20 μM Forskolin & 30 μM P3 [6-(Ethyl-phenyl-sulfonyl)-4-oxo-1,4-dihydro-quinoline-3-carboxylic acid 2-methoxy-benzylamide] in Hams F-12 coon's modified media was added to the plate wells and incubated at room temperature for 60-120 min. 25 μL of HEPES-PBS-I buffer (10 mM HEPES, 1 mM MgCl2, 3 mM KCl, 1 mM CaCl2, 150 mM NaI) was then added and fluorescence quench curves (Excitation 500 nm/Emission 540 nm; exposure 136 ms) were immediately recorded on an FDSS-6000 plate reader (Hamamatsu). Quench rates were derived from least squares fitting of the data as described by Sui et al., (2010).
The following protocol is designed to selectively screen small molecule compounds for F508del CFTR potentiator activities in the HTS YFP flux assay. In this protocol, the cells are incubated at 27 C for 24 hours with homogeneously boosted dF508-CFTR expression in the cell membrane by the low temperature, washed with PBS, stimulated with forskolin, and read on a 384-well HTS plate reader, such as the Hamamatsu FDDD-6000.
YFP fluorescence intensity is acquired at high speed before and after iodide buffer is injected to the assay cells. Iodide enters the cells via active CFTR channels in the plasma membrane, and quenches the YFP fluorescence. The rate of fluorescence quenching is proportionally related to the total CFTR activities in the cell membrane. dF508del-CFTR potentiators accelerate YFP quenching by increasing CFTR activities in the testing cell plasma membrane.
Fisher Rat Thyroid (FRT) cells stably expressing both human ΔF508-CFTR and a halide-sensitive yellow fluorescent protein (YFP-H148Q/I152L 25, 22) (Galietta et al., Am. J. Physiol Cell Physiol 281(5), C1734, 2001) were cultured on plastic surface in Coon's modified Ham's F12 medium supplemented with FBS 10%, L-glutamine 2 mM, penicillin 100 U/mL, and streptomycin 100 μg/mL. […]

Broadly, the EC50 is the midpoint of the concentration-response curve.

T1 sequence (P13569 with tags, fused parts or gaps DEL508-508): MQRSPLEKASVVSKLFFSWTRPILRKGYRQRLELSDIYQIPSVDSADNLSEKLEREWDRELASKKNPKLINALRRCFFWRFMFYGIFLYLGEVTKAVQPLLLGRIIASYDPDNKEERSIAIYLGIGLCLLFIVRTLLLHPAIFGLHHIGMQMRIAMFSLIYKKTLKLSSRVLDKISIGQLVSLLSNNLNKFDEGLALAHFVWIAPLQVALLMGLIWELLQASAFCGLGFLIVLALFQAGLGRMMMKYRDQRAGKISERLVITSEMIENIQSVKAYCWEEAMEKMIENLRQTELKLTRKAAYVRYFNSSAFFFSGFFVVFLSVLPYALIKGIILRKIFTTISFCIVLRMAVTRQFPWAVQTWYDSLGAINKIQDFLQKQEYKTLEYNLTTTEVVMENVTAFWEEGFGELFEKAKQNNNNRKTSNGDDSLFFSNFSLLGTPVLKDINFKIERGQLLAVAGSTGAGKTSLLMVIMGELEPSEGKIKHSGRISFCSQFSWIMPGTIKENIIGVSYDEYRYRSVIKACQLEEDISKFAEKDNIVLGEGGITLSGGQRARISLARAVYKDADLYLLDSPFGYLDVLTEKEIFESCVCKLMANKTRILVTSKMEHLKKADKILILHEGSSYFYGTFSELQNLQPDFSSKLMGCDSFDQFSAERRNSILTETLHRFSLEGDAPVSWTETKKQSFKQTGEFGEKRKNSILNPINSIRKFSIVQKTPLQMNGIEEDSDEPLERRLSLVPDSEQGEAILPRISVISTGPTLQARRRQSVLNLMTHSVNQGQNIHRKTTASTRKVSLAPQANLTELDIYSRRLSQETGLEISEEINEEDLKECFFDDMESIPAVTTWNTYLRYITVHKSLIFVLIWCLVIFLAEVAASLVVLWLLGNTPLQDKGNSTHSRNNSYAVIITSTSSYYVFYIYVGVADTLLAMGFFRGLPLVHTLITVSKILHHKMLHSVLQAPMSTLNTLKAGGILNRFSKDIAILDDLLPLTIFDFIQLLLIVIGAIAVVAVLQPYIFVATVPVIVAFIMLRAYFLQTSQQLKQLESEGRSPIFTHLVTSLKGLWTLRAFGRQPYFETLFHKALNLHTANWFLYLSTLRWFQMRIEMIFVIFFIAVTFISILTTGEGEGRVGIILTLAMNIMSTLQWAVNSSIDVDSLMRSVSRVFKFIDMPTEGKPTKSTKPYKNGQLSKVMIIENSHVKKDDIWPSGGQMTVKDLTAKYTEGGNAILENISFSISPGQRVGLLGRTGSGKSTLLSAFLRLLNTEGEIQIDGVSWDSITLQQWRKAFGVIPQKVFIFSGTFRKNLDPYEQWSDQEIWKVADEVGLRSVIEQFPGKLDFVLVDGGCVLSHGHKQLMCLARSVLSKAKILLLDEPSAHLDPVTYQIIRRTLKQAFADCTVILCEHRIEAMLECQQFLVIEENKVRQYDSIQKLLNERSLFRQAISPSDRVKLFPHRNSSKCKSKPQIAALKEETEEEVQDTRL

For the compound “2-(4-(3-aminophenyl)-1-oxophthalazin-2(1H)-yl)-N-ethyl-N-(4-ethylphenyl)acetamide [Example 7]”, the “% Efficacy (Emax normalized to the positive control)” value was “++ (a range of 80%-30%)” and the EC50 is above 20 µM. For the compound “2-(4-(3-chlorophenyl)-1-oxophthalazin-2(1H)-yl)-N-(2,2-difluorobenzo[d][1,3]dioxol-5-yl)-N-ethylacetamide [Example 21]”, the “% Efficacy (Emax normalized to the positive control)” value was “+++ (EMAX > 80%)” and the concentration for a half-maximal effect (EC50) is below 10 µM. As for “2-(4-(3-cyanophenyl)-1-oxophthalazin-2(1H)-yl)-N-(2,2-difluorobenzo[d][1,3]dioxol-5-yl)-N-ethylacetamide [Example 20]”, the “% Efficacy (Emax normalized to the positive control)” value is reported as “++ (a range of 80%-30%)” and the EC50 was above 20 µM.

On to “2-(4-(3-cyanophenyl)-1-oxophthalazin-2(1H)-yl)-N-ethyl-N-(4-ethylphenyl)acetamide [Example 16]”, for which the “% Efficacy (Emax normalized to the positive control)” value is given as “++ (a range of 80%-30%)” and the EC50 was below 10 µM.

With “2-(4-(benzo[d][1,3]dioxol-4-yl)-1-oxophthalazin-2(1H)-yl)-N-ethyl-N-(4-ethylphenyl)acetamide [Example 9]”, the “% Efficacy (Emax normalized to the positive control)” value is given as “+ (a range of 30%-10%)” and the half-maximal effective concentration (EC50) was below 10 µM. Turning to “3-(3-(2-(ethyl(4-ethylphenyl)amino)-2-oxoethyl)-4-oxo-3,4-dihydrophthalazin-1-yl)benzamide [Example 10]”, the “% Efficacy (Emax normalized to the positive control)” value was “+ (a range of 30%-10%)” and the EC50 was above 20 µM. For “4-(3-(2-((2,2-difluorobenzo[d][1,3]dioxol-5-yl)(ethyl)amino)-2-oxoethyl)-4-oxo-3,4-dihydro-phthalazin-1-yl)benzamide [Example 18]”, the “% Efficacy (Emax normalized to the positive control)” value was “+++ (EMAX > 80%)” and the EC50 is 10 to 20 µM. On to “4-(3-(2-((2,2-difluorobenzo[d][1,3]dioxol-5-yl)(ethyl)amino)-2-oxoethyl)-4-oxo-3,4-dihydrophthalazin-1-yl)benzoic acid [Example 19]”, for which the “% Efficacy (Emax normalized to the positive control)” value is recorded as “+++ (EMAX > 80%)” and the EC50 is 10 to 20 µM.

“4-(3-(2-(ethyl(4-ethylphenyl)amino)-2-oxoethyl)-4-oxo-3,4-dihydrophthalazin-1-yl)benzamide [Example 11]”: the “% Efficacy (Emax normalized to the positive control)” value is recorded as “++ (a range of 80%-30%)” and the EC50 lay within 10 to 20 µM. On to “4-(3-(2-(ethyl(4-ethylphenyl)amino)-2-oxoethyl)-4-oxo-3,4-dihydrophthalazin-1-yl)benzoic acid [Example 13]”, for which the “% Efficacy (Emax normalized to the positive control)” value is on record as “++ (a range of 80%-30%)” and the EC50 lay in the range of 10 to 20 µM. With `CCc1ccc(N(CC)C(=O)Cn2nc(-c3ccccc3)c3ccccc3c2=O)cc1` [Example 1, N-ethyl-N-(4-ethylphenyl)-2-(1-oxo-4-phenylphthalazin-2(1H)-yl)acetamide], the EC50 is 10 to 20 µM. Still for that read-out and setting: to `CCc1ccc(N(CC)C(=O)Cn2nc(-c3ccc(O)cc3)c3ccccc3c2=O)cc1` [Example 2, N-ethyl-N-(4-ethylphenyl)-2-(4-(4-hydroxyphenyl)-1-oxophthalazin-2(1H)-yl)acetamide] belongs below 10 µM; to `CCc1ccc(N(CC)C(=O)Cn2nc(-c3cccnc3)c3ccccc3c2=O)cc1` [Example 3, N-ethyl-N-(4-ethylphenyl)-2-(1-oxo-4-(pyridin-3-yl)phthalazin-2(1H)-yl)acetamide], above 20 µM; to `CCc1ccc(N(CC)C(=O)Cn2nc(-c3ccncc3)c3ccccc3c2=O)cc1` [Example 4, N-ethyl-N-(4-ethylphenyl)-2-(1-oxo-4-(pyridin-4-yl)phthalazin-2(1H)-yl)acetamide], above 20 µM. With `CCc1ccc(N(CC)C(=O)Cn2nc(-c3cccc4ncccc34)c3ccccc3c2=O)cc1` [Example 5, N-ethyl-N-(4-ethylphenyl)-2-(1-oxo-4-(quinolin-5-yl)phthalazin-2(1H)-yl)acetamide], the EC50 was 10 to 20 µM. For the compound `CCc1ccc(N(CC)C(=O)Cn2nc(-c3cccc4cnccc34)c3ccccc3c2=O)cc1` [Example 6, N-ethyl-N-(4-ethylphenyl)-2-(4-(isoquinolin-5-yl)-1-oxophthalazin-2(1H)-yl)acetamide], the EC50 was below 10 µM. As for `CCN(C(=O)Cn1nc(-c2cccnc2)c2ccccc2c1=O)c1ccc2c(c1)OC(F)(F)O2` [Example 24], the EC50 is above 20 µM. For the compound `CCc1ccc(N(CC)C(=O)Cn2nc(Cc3cccnc3)c3ccccc3c2=O)cc1` [Example 25, N-ethyl-N-(4-ethylphenyl)-2-(1-oxo-4-(pyridin-3-ylmethyl)phthalazin-2(1H)-yl)acetamide], the EC50 is below 10 µM.

Turning to `CCN(C(=O)Cn1nc(Cc2cccnc2)c2ccccc2c1=O)c1ccc2c(c1)OC(F)(F)O2` [Example 26, N-(2,2-difluorobenzo[d][1,3]dioxol-5-yl)-N-ethyl-2-(1-oxo-4-(pyridin-3-ylmethyl)phthalazin-2(1H)-yl)acetamide], the EC50 is below 10 µM. Regarding `COc1ccc(N(C)C(=O)Cn2nc(Cc3cccnc3)c3ccccc3c2=O)cc1` [Example 27, N-(4-methoxyphenyl)-N-methyl-2-(1-oxo-4-(pyridin-3-ylmethyl)phthalazin-2(1H)-yl)acetamide], the EC50 was below 10 µM. As for `CCc1ccc(N(CC)C(=O)Cn2nc(Cc3cccnc3)c3ccc(C)cc3c2=O)cc1` [Example 28, N-ethyl-N-(4-ethylphenyl)-2-(7-methyl-1-oxo-4-(pyridin-3-ylmethyl)phthalazin-2(1H)-yl)acetamide], the EC50 is below 10 µM. With `CCc1ccc(N(CC)C(=O)Cn2nc(Cc3cccnc3)c3cc(C)ccc3c2=O)cc1` [Example 29, N-ethyl-N-(4-ethylphenyl)-2-(6-methyl-1-oxo-4-(pyridin-3-ylmethyl)phthalazin-2(1H)-yl)acetamide], the EC50 is below 10 µM. For `CCc1ccc(N(CC)C(=O)Cn2nc(Cc3cccnc3)c3cccc(C)c3c2=O)cc1` [Example 30, N-ethyl-N-(4-ethylphenyl)-2-(8-methyl-1-oxo-4-(pyridin-3-ylmethyl)phthalazin-2(1H)-yl)acetamide], the EC50 was below 10 µM. As for `CCc1ccc(N(CC)C(=O)Cn2nc(Cc3cccnc3)c3c(C)cccc3c2=O)cc1` [Example 31, N-ethyl-N-(4-ethylphenyl)-2-(5-methyl-1-oxo-4-(pyridin-3-ylmethyl)phthalazin-2(1H)-yl)acetamide], the EC50 is below 10 µM.

`CCc1ccc(N(CC)C(=O)Cn2nc(Cc3cccnc3)c3cc(OC)c(OC)cc3c2=O)cc1` [Example 32, 2-(6,7-dimethoxy-1-oxo-4-(pyridin-3-ylmethyl)phthalazin-2(1H)-yl)-N-ethyl-N-(4-ethylphenyl)acetamide]: the EC50 was below 10 µM. In the case of `CCc1ccc(N(CC)C(=O)Cn2nc(Cc3cccnc3)c3ccc(C(C)(C)C)cc3c2=O)cc1` [Example 33, 2-(7-(tert-butyl)-1-oxo-4-(pyridin-3-ylmethyl)phthalazin-2(1H)-yl)-N-ethyl-N-(4-ethylphenyl)acetamide], the EC50 was below 10 µM. With `CCc1ccc(N(CC)C(=O)Cn2nc(Cc3cccnc3)c3cc(C(C)(C)C)ccc3c2=O)cc1` [Example 34, 2-(6-(tert-butyl)-1-oxo-4-(pyridin-3-ylmethyl)phthalazin-2(1H)-yl)-N-ethyl-N-(4-ethylphenyl)acetamide], the EC50 is below 10 µM.
